Test results as given in US4925846A, “2-thiazolyl-imidazo[1,2,-a]pyrimidines” (Roussel Uclaf, priority 1986, dated 1990).
pIC50: −log10 of the molar value.

What was measured:
Wistar rats = assay: Induction of suprahyoid muscle twitching in urethane anaesthetised Wistar rats; assay type: in vivo; conditions: Rattus norvegicus, ip, urethane anaesthetised Wistar rats pretreated with nialamide; read-out: MED, increase of amplitude and/or rate of suprahyoid muscle twitch
Source text: (§1) Benzodiazepine inverse agonists properties are indicated by the following tests.
(c) […] of suprahyoid muscle twitching in urethane anaesthetised Wistar rats [James & Gardner--Europ. J. Pharmacol. 113, 223-8 (1985)]. Wistar rats pretreated with nialamide are anaesthetised with urethane and the suprahyoid muscles exposed. These muscles spontaneously twitch and active compounds increase the amplitude and/or rate of twitch.

DBA2 mice = assay: Potentiation of threshold seizures induced by audiogenic stimulation in DBA2 mice; assay type: in vivo; conditions: Mus musculus, ip, 0.5 h, i.p., 30 mins pretest, read-out: ED50, potentiation of audiogenic threshold seizures to full tonic seizures
Experimental: as §1
(a) Potentiation of threshold seizures induced by audiogenic stimulation in DBA2 mice [Jensen et al--Life Sciences 33, 393-9 (1983)], DBA2 mice are subjected to audio stimulation. The threshold seizure characteristics (myoclonus, running) are potentiated by active compounds to full tonic seizures and ED50 is calculated.

CD1 mice = assay: Potentiation of seizures induced by subcutaneous injection of leptazol to CD1 mice; assay type: in vivo; conditions: Mus musculus, ip, 0.5 h, i.p., 30 mins pretest, read-out: ED50, potentiation of leptazol-induced tonic seizures
Experimental: as §1
(b) Potentiation of seizures induced by subcutaneous injection of leptazol to CD1 mice.
A dose of leptazol is selected to give 10 to 20% tonic seizures in untreated CD1 mice. Active compounds increase the percentage of tonic seizures and the ED50 is calculated by the method of Lichfield and Wilcoxon (J. Pharmacol Exp. Ther. (1949) 96, 99).

benzodiazepine receptor = assay: Benzodiazepine receptor binding (FRB), [3H]-flunitrazepam displacement; conditions: 0.6 nM [3H] flunitrazepam, rat forebrain membrane preparations; read-out: FRB (IC50, inhibition of specific binding of [3H]-flunitrazepam)
Experimental: The compounds of formula I are agents which interact with benzodiazepine receptors in the brain, and are useful as minor tranquillizers and for the treatment of obesity or cognitive impairment. Screening for benzodiazepine receptor binding (FRB) was carried out by the method described in published British Patent No. 2,128,989. The values given in Table II are expressed in terms of IC50 (nM).
The affinity of the compounds for the benzodiazepine receptor was assessed using the radioligand [^3 H]-flunitrazepam by modification of the original radioceptor binding method of SQUIRES et al [Nature, (1977), Vol. 266, p. 732].

Structure (SMILES) | pIC50 (benzodiazepine receptor) | further results
CCc1c(OC)nc2nc(-c3nc(C)cs3)cn2c1C [Example 1, 6-Ethyl-7-methoxy-5-methyl-2-(4-methylthiazol-2-yl)-imidazo[1,2-a]pyrimidine] | 6.95 | minimal effective dose (Wistar rats): 10 mg/kg; ED50 (DBA2 mice): 3 mg/kg; ED50 (CD1 mice): 50 mg/kg
CCc1csc(-c2cn3c(C)c(CC)c(OC)nc3n2)n1 [Example 2, 6-Ethyl-2-(4-ethylthiazol-2-yl)-7-methoxy-5-methylimidazo[1,2-a]pyrimidine] | 6.66 | –
CCc1c(OC)nc2nc(-c3nc(C)c(C)s3)cn2c1C [Example 3, 2-(4,5-Dimethylthiazol-2-yl)-6-ethyl-7-methoxy-5-methylimidazo[1,2-a]pyrimidine] | 5.60 | –
CCOC(=O)c1csc(-c2cn3c(C)c(CC)c(OC)nc3n2)n1 [Example 4, Ethyl 2-(6-ethyl-7-methoxy-5-methylimidazo[1,2-a]pyrimidin-2-yl)-thiazole-4-carboxylate] | 5.55 | –
CCc1c(SC)nc2nc(-c3nc(C)cs3)cn2c1C [Example 5, 6-Ethyl-5-methyl-2-(4-methylthiazol-2-yl)-7-methylthioimidazo[1,2-a]pyrimidine] | 7.10 | –
CCc1c(OC)nc2nc(-c3nc(C(F)(F)F)cs3)cn2c1C [Example 6, 6-Ethyl-7-methoxy-5-methyl-2-(4-trifluoromethylthiazol-2-yl)-imidazol[1,2-a]pyrimidine] | 5.70 | –
COc1nc2nc(-c3nc(C)cs3)cn2c2c1CCCC2 [Example 7, 5-Methoxy-2-(4-methylthiazol-2-yl)-6,7,8,9-tetrahydroimidazo[1,2-a]quinazoline] | 7.66 | –
C=CCc1c(OC)nc2nc(-c3nc(C)cs3)cn2c1C [Example 8, 6-Allyl-7-methoxy-5-methyl-2-(4-methylthiazol-2-yl)imidazo[1,2-a]pyrimidine] | 7.00 | –
CCCc1c(OC)nc2nc(-c3nc(C)cs3)cn2c1C [Example 9, 7-Methoxy-5-methyl-2-(4-methylthiazol-2-yl)-6-propylimidazo[1,2-a]pyrimidine] | 7.00 | –
CCc1c(OC)nc2nc(-c3nccs3)cn2c1C [Example 10, 6-Ethyl-7-methoxy-5-methyl-2-(thiazol-2-yl)imidazo[1,2-a]pyrimidine] | 6.70 | –
